Assay results from patent publication US20240307419A1, “CONFORMATIONALLY-CONSTRAINED INHIBITORS OF 3C OR 3C-LIKE PROTEASES” (priority 2021, published 2024).
Read-outs that look alike come from different tables or passages of the source.

Experiments:
SARS-CoV-2 3CLpro = SARS-CoV-2 3CLpro (Severe acute respiratory syndrome coronavirus 2 (2019-nCoV) (SARS-CoV-2), UniProt P0DTD1); assay: biochemical; type: biochemical
MERS-CoV 3CLpro = MERS-CoV 3CLpro (Middle East respiratory syndrome-related coronavirus (isolate United Kingdom/H123990006/2012) (MERS-CoV) (Betacoronavirus England 1), UniProt K9N7C7); type: biochemical
SARS-CoV-2 [1] = tested on: SARS-CoV-2
[2] = tested on: Huh-7, CRFK, or CCL1 cells
SARS-CoV-2 [3] = assay: in vitro; conditions: African green monkey
SARS-CoV-2 [4] = assay: microbe, parasite or virus in culture; conditions: Severe acute respiratory syndrome coronavirus 2, Vero C1008, read-out: EC50 against SARS-CoV-2 in Vero E6 cells
SARS-CoV-2 replicon [5] = assay: microbe, parasite or virus in culture; type: cell-based; conditions: read-out: EC50, SARS-CoV-2 replicon assay
CRFK cells = conditions: cat
SARS-CoV-2 replicon [6] = conditions: 293T cells, previously reported; read-out: EC50 previously reported with the same system; cited from earlier work
[7] = tested on: feline infectious peritonitis virus (FIPV); conditions: cell culture and naturally infected animals with long term treatment; previously reported; cited from earlier work
[8] = Severe acute respiratory syndrome coronavirus 2, HEK-293T, 30 h

Sequence of MERS-CoV 3CLpro (K9N7C7 3248-3553 limits assumed): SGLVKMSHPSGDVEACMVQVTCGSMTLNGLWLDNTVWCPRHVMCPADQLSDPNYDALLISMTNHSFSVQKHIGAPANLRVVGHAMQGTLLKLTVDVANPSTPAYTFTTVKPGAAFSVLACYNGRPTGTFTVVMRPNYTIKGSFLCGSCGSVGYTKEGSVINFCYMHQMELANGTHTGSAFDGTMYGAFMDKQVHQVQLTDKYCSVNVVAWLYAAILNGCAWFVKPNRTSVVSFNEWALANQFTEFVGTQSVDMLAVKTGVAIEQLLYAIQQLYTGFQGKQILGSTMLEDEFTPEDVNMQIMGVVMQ

Structure (SMILES)	IC50 (SARS-CoV-2 3CLpro; read-out: IC50) [µM]	IC50 (MERS-CoV 3CLpro) [µM]	EC50 lower than the corresponding IC50 values (SARS-CoV-2 [1]) [fold]	CC50 [2] [µM]	EC50 (SARS-CoV-2 replicon [5]; [8]) [µM]	CC50 (CRFK cells) [µM]	further results
CC(C)C[C@H](NC(=O)OC[C@@H]1C[C@@H]2CCC[C@@H](C2)C1)C(=O)N[C@H](C=O)C[C@@H]1CCNC1=O [Compound 2a, ((1R,3s,5S)-Bicyclo[3.3.1]nonan-3-yl)methyl ((S)-4-methyl-1-oxo-1-(((S)-1-oxo-3-((S)-2-oxopyrrolidin-3-yl)propan-2-yl)amino)pentan-2-yl)carbamate]	0.18 ± 0.03	0.052 ± 0.001	~4.6	> 100	–	–	selectivity indices (SARS-CoV-2 [1]): 2857; EC50 (SARS-CoV-2 [1]; read-out: EC50 against SARS-CoV-2 in Vero E6 cells): 0.035 µM
CC(C)C[C@H](NC(=O)OCC1C[C@H]2CCC[C@@H](C1)C2)C(=O)N[C@@H](C[C@@H]1CCNC1=O)C(O)S(=O)(=O)[O-].[Na+] (stereo partly drawn) [Compound 3a, Sodium (2S)-2-((2S)-2-(((((1R,5S)-bicyclo[3.3.1]nonan-3-yl)methoxy)carbonyl)amino)-4-methylpentanamido)-1-hydroxy-3-((S)-2-oxopyrrolidin-3-yl)propane-1-sulfonate]	0.17 ± 0.02	0.049 ± 0.002	~4.6	> 100	–	–	selectivity ratio (SARS-CoV-2 [3]): 3120; EC50 (SARS-CoV-2 [4]): 0.032 µM
CC(C)C[C@H](NC(=O)OC1CC2(CCN(C(=O)OC(C)(C)C)CC2)C1)C(=O)N[C@H](C=O)C[C@H]1CCNC1=O [Compound 7b, Tert-butyl 2-((((S)-4-methyl-1-oxo-1-(((S)-1-oxo-3-((R)-2-oxopyrrolidin-3-yl)propan-2-yl)amino)pentan-2-yl)carbamoyl)oxy)-7-azaspiro[3.5]nonane-7-carboxylate]	–	–	–	–	0.09	> 100	IC50 lower than that of compound 1b (SARS-CoV-2 3CLpro): > 9 fold
CC(C)C[C@H](NC(=O)OCC1CN(C(=O)OC(C)(C)C)C1)C(=O)N[C@@H](C[C@H]1CCNC1=O)C(O)S(=O)(=O)O (stereo partly drawn) [Compound 14c, Sodium (2S)-2-((S)-2-((((1-(tert-butoxycarbonyl)azetidin-3-yl)methoxy)carbonyl)amino)-4-methylpentanamido)-1-hydroxy-3-((R)-2-oxopyrrolidin-3-yl)propane-1-sulfonate]	–	–	–	–	0.43	> 100	IC50 (SARS-CoV-2 3CLpro): 0.05 µM
CC(C)C[C@H](NC(=O)OCc1ccccc1)C(=O)N[C@@H](CC1CCNC1=O)C(O)S(=O)(=O)O (stereo partly drawn) [GC376]	–	–	–	–	–	–	EC50 (SARS-CoV-2 replicon [5]): 0.037 ± 0.01 µM; EC50 (SARS-CoV-2 replicon [6]): 0.02 µM
CC(C)C[C@H](NC(=O)OCc1ccccc1)C(=O)N[C@@H](C[C@@H]1CCNC1=O)C(O)S(=O)(=O)[O-].[Na+] (stereo partly drawn) [GC376]	–	–	–	–	–	–	barrier to resistance to FIPV [7]: high barrier to resistance
